We go through 27 molecules from patent publication US6656911B2, “Serine protease inhibitors” (Cortech, Inc., priority 1994, dated 2003).

By Ki is commonly meant a measure of affinity in units of concentration, obtained from inhibition or displacement.

For this assay, the target named is T1, human neutrophil elastase (HNE) (Homo sapiens, UniProt P08246).
T1 sequence (P08246 30-267): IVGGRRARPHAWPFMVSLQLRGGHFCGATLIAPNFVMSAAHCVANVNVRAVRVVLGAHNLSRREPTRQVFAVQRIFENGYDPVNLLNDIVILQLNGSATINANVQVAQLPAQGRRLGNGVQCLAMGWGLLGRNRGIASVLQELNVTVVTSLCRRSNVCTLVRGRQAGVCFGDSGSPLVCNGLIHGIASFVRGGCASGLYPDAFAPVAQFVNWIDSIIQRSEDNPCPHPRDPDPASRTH
In words: HNE Ki of CE compounds, tested as described in WO 96/16080. Format: biochemical. Conditions: read-out: HNE Ki.
Take `Cc1cccc(Cc2nnc(C(=O)[C@@H](NC(=O)[C@@H]3CCCN3C(=O)[C@@H](NC(=O)N3CCOCC3)C(C)C)C(C)C)o2)c1` [CE2104, (Morpholino-N-carbonyl)-L-valyl-N-[1-(2-[5-(3-methylbenzyl)-1,3,4-oxadiazolyl]carbonyl)-2-(S)-methylpropyl]-L-prolinamide]: the Ki was 0.33 nM. With `CC(=O)N1CC(=O)N(CC(=O)N[C@H](C(=O)c2nnc(Cc3cccc(C)c3)o2)C(C)C)C(=Cc2ccc(F)cc2)C1=O` [CE2105, 1-Acetyl-3-(4-fluorobenzylidene) piperazine-2,5-dione-N-[1-(2-[5-(3-methylbenzyl)-1,3,4-oxadiazolyl]carbonyl)-2-(S)-methylpropyl]acetamide], the Ki was determined as 0.72 nM. Take `Cc1cccc(Cc2nnc(C(=O)C(NC(=O)CN3C(=O)CN(C)C(=O)C3c3ccccc3)C(C)C)o2)c1` [CE2106, 4-[1-Methyl-3-(R,S)-phenylpiperazine-2,5,-dione]-N-[1-(2-[5-(3-methylbenzyl)-1,3,4-oxadiazolyl]carbonyl)-2-(S)-methylpropyl]acetamide]: the Ki worked out at 41 nM. Under `Cc1cccc(Cc2nnc(C(=O)[C@@H](NC(=O)Cn3c(=O)c(NC(=O)OCc4ccccc4)cc4ccc(N5CCCCC5)cc43)C(C)C)o2)c1` [CE2107, 3-[(Benzyloxycarbonyl)amino]-7-piperidinyl-quinoline-2-one-N-[1-(2-[5-(3-methylbenzyl)-1,3,4-oxadiazolyl]carbonyl)-2-(S)-methylpropyl]acetamide] stands 17 nM; under `Cc1cccc(Cc2nnc(C(=O)[C@@H](NC(=O)Cn3c(=O)c(NC(=O)OCc4ccccc4)cc4ccccc43)C(C)C)o2)c1` [CE2108, 3-[(Benzyloxycarbonyl)amino]-quinoline-2-one-N-[1-(2-[5-(3-methylbenzyl)-1,3,4-oxadiazolyl]carbonyl)-2-(S)-methylpropyl]acetamide], 10.5 nM.

As for `COC(=O)c1ccc(C=C2C(=O)N(C(C)=O)CC(=O)N2CC(=O)N[C@H](C(=O)c2nnc(Cc3cccc(C)c3)o2)C(C)C)cc1` [CE2112, 1-Acetyl-3-(4-carbomethoxybenzylidene) piperazine-2,5-dione-N-[1-(2-[5-(3-methylbenzyl)-1,3,4-oxadiazolyl]carbonyl)-2-(S)-methylpropyl]acetamide], the Ki amounted to 1.2 nM. As for `CC(=O)N1CC(=O)N(CC(=O)N[C@H](C(=O)c2nnc(Cc3cccc(C)c3)o2)C(C)C)C(=Cc2ccncc2)C1=O` [CE2114, 1-Acetyl-3-[(4-pyridyl)methylene] piperazine-2,5-dione-N-[1-(2-[5-(3-methylbenzyl)-1,3,4-oxadiazolyl]carbonyl)-2-(S)-methylpropyl]acetamide], the Ki came to 25 nM. As for `CC(C)[C@H](NC(=O)[C@@H]1CCCN1C(=O)[C@@H](NC(=O)OCc1ccccc1)C(C)C)C(=O)c1noc(Cc2ccc(N(C)C)cc2)n1` [CE2115, (Benzyloxycarbonyl)-L-valyl-N-[1-(3-[5-(4-dimethylaminobenzyl)-1,2,4-oxadiazolyl]carbonyl)-2-(S)-methylpropyl]-L-prolinamide], the Ki is 1 nM. For the molecule `COC(=O)c1c(F)c2ccccc2n(CC(=O)N[C@H](C(=O)c2nnc(Cc3cccc(C)c3)o2)C(C)C)c1=O` [CE2117, 3-Carbomethoxy-4-fluoro-quinoline-2-one-N-[1-(2-[5-(3-methylbenzyl)-1,3,4-oxadiazolyl]carbonyl)-2-(S)-methylpropyl]acetamide], the Ki was determined as 586 nM.

Regarding `Cc1cccc(Cc2nnc(C(=O)C(NC(=O)CN3C(=O)CCSC3c3ccccc3)C(C)C)o2)c1` [CE2118, 2-[2-(R,S)-Phenyl-4-oxometathiazan-3-yl]-N-[1-(2-[5-(3-methylbenzyl)-1,3,4-oxadiazolyl]carbonyl)-2-(S)-methylpropyl]acetamide], the Ki was determined as 13.2 nM. As for `Cc1cccc(Cc2nnc(C(=O)C(NC(=O)CN3C(=O)CSC3c3ccccc3)C(C)C)o2)c1` [CE2121, 2-[2-(R,S)-Phenyl-4-oxothiazolidin-3-yl]-N-[1-(2-[5-(3-methylbenzyl)-1,3,4-oxadiazolyl]carbonyl)-2-(S)-methylpropyl]acetamide], the Ki is 28 nM.

In the case of `Cc1cccc(Cc2nnc(C(=O)[C@@H](NC(=O)CN3C(=O)CSC3Cc3ccccc3)C(C)C)o2)c1` (stereo partly drawn) [CE2122], the Ki is 63 nM. Take `Cc1cccc(Cc2nnc(C(=O)[C@@H](NC(=O)CN3C(=O)CN(Cc4ccccc4)C(=O)[C@@H]3Cc3ccccc3)C(C)C)o2)c1` [CE2128, 4-[1-Benzyl-3-(S)-benzylpiperazine-2,5,-dione]-N-[1-(2-(5-(3-methylbenzyl)-1,3,4-oxadiazolyl]carbonyl)-2-(S)-methylpropyl]acetamide]: the Ki turned out to be 64 nM.

In the case of `CC(C)[C@H](NC(=O)CN1C(=O)CN(Cc2ccccc2)C(=O)[C@@H]1Cc1ccccc1)C(=O)c1noc(Cc2cccc(C(F)(F)F)c2)n1` [CE2129, 4-[1-Benzyl-3-(S)-benzylpiperazine-2,5,-dione]-N-[1-(3-[5-(3-trifluoromethylbenzyl)-1,2,4-oxadiazolyl]carbonyl)-2-(S)-methylpropyl]acetamide], the Ki was 300 nM. With `CC(C)[C@H](NC(=O)CN1C(=O)CN(Cc2ccccc2)C(=O)[C@@H]1Cc1ccccc1)C(=O)c1noc(CCN(C)C)n1` [CE2133, 4-[1-Benzyl-3-(S)-benzylpiperazine-2,5,-dione]-N-[1-(3-[5-(2-dimethylaminoethyl)-1,2,4-oxadiazolyl]carbonyl)-2-(S)-methylpropyl]acetamide], the Ki was found to be 33000 nM.

Consider `Cc1cccc(Cc2nnc(C(=O)C(NC(=O)CN3C(=O)C[S+]([O-])C3Cc3ccccc3)C(C)C)o2)c1` [CE2136, 2-[(2-(R,S)-Benzyl-4-oxothiazolidin-3-yloxide]-N-[1-(2-[5-(3-methylbenzyl)-1,3,4-oxadiazolyl]carbonyl)-2-(R,S)-methylpropyl]acetamide], for which the Ki was 104 nM. As to `CC(C)C(NC(=O)CN1C(=O)C[S+]([O-])C1Cc1ccccc1)C(=O)c1noc(Cc2cccc(C(F)(F)F)c2)n1` [CE2137, 2-[2-(R,S)-Benzyl-4-oxothiazolidin-3-yloxide]-N-[1-(3-[5-(3-trifluoromethylbenzyl)-1,2,4-oxadiazolyl]carbonyl)-2-(R,S)-methylpropyl]acetamide], the Ki turned out to be 558 nM. The same measure for `Cc1cccc(Cc2nnc(C(=O)[C@@H](NC(=O)CN3CC(=O)N(C(=O)c4ccccc4)CC3=O)C(C)C)o2)c1` [CE2138, (1-Benzoyl-3,6-piperazinedione)-N-[1-(2-[5-(3-S methylbenzyl)-1,3,4-oxadiazolyl]carbonyl)-2-(S)-methylpropyl]acetamide]: 294 nM. Under `Cc1cccc(Cc2nnc(C(=O)[C@@H](NC(=O)Cn3c(=O)c4ccccc4n(C(=O)c4ccccc4)c3=O)C(C)C)o2)c1` [CE2140, (1-Benzoyl-3,8-quinazolinedione)-N-[1-(2-[5-(3-methylbenzyl)-1,3,4-oxadiazolyl]carbonyl)-2-(S)-methylpropyl]acetamide] stands 204 nM; under `Cc1cccc(Cc2nnc(C(=O)[C@@H](NC(=O)CN3C(=O)N[C@H](Cc4ccccc4)C3=O)C(C)C)o2)c1` [CE2142, 5-(R)-Benzyl-2,4-imidazolidinedione-N-[1-(2-[5-(3-methylbenzyl)-1,3,4-oxadiazolyl]carbonyl)-2-(S)-methylpropyl]acetamide], 8.7 nM. The same measure for `CC(=O)N1c2ccccc2C[C@H]1C(=O)N[C@H](C(=O)c1noc(Cc2cccc(C(F)(F)F)c2)n1)C(C)C` [CE2143, Acetyl-2-L-(2,3-dihydro-1H-indole)-N-[1-(3-[5(3-trifluoromethylbenzyl)-1,2,4-oxadiazolyl]carbonyl)-2-(S)-methylpropyl]amide]: 11.5 nM; for `Cc1cccc(Cc2nnc(C(=O)[C@@H](NC(=O)CN3C(=O)CN(Cc4ccccc4)C(=O)[C@H]3Cc3ccccc3)C(C)C)o2)c1` [CE2144, 4-[1-Benzyl-3-(R)-benzyl-piperazine-2,5,-dione]-N-[1-([5-(3-methylbenzyl)-1,3,4-oxadiazolyl]carbonyl)-2-(S)-methylpropyl]acetamide]: 9.3 nM.

As to `Cc1cccc(Cc2nnc(C(=O)[C@@H](NC(=O)[C@@H]3Cc4ccccc4N3C(=O)[C@@H](NC(=O)OCc3ccccc3)C(C)C)C(C)C)o2)c1` [CE2145, (Benzyloxycarbonyl)-L-valyl-2-L-(2,3-dihydro-1H-indole)-N-[1-(2-[5-(3-methylbenzyl)-1,3,4-oxadiazolyl]carbonyl)-2-(S)-methylpropyl]amide], the Ki turned out to be 0.038 nM.

Take `CC(C)[C@H](NC(=O)CN1C(=O)CN(Cc2ccccc2)C(=O)[C@H]1Cc1ccccc1)C(=O)c1noc(Cc2cccc(C(F)(F)F)c2)n1` [CE2146, 4-[1-Benzyl-3-(R)-benzylpiperazine-2,5,-dione]-N-[1-(3-(5-(3-trifluoromethylbenzyl)-1,2,4-oxadiazolyl]carbonyl)-2-(S)-methylpropyl]acetamide]: the Ki was determined as 67 nM. Take `Cc1cccc(Cc2nnc(C(=O)[C@@H](NC(=O)CN3CC(=O)N(c4ccccc4)CC3=O)C(C)C)o2)c1` [CE2147, (1-Phenyl-3,6-piperazinedione)-N-[1-(2-[5-(3-methylbenzyl)-1,3,4-oxadiazolyl]carbonyl)-2-(S)-methylpropyl]acetamide]: the Ki stood at 1600 nM. Consider `CC(C)[C@H](NC(=O)CN1C(=O)N[C@@H](Cc2ccccc2)C1=O)C(=O)c1noc(Cc2cccc(C(F)(F)F)c2)n1` [CE2155, 5-(S)-Benzyl-2,4-imidazolidinedione-N-[1-(3-[5-(3-trifluoromethylbenzyl)-1,2,4-oxadiazolyl]carbonyl)-2-(S)-methylpropyl]acetamide], for which the Ki was 57 nM. As to `Cc1cccc(Cc2nnc(C(=O)[C@@H](NC(=O)CN3C(=O)CNC(=O)C3Cc3ccncc3)C(C)C)o2)c1` (stereo partly drawn) [CE2159, 2-(R,S)-[6-(Methylene-4-pyridyl)piperazine-2,5-dione]-N-[1-(2-[5-(3-methylbenzyl)-1,3,4-oxadiazolyl]carbonyl)-2-(S)-methylpropyl]acetamide], the Ki was determined as 52 nM.
